Laboratory results: patent publication US4268665A, “Derivatives of antibiotic tylosin” (Toyo Jozo Kabushiki Kaisha, priority 1978, dated 1981)
In brackets after ≈: the same amount, converted by molar mass. Where two headings read alike, the source gives them in different places.

Tests used:
Type in all cases: cell-based
Strept.pyogenes N.Y.5 = assay: MIC on Strept.pyogenes N.Y.5; conditions: Streptococcus pyogenes
Source text: (§1) In Table I hereinafter is shown the minimum inhibitory concentrations (MIC) on microorganisms of the products of the present invention. As a result, the compound [1] is seen to be effective against macrolide-resistant A group microorganisms.

Staph.aureus 0127 = assay: MIC on Staph.aureus 0127 (macrolide-resistant A group); conditions: Staphylococcus aureus; Staph.aureus 0127, erythromycin, oleandomycin, 16-membered macrolide resistant clinical isolate
Source text: as §1
(§2) *Erythromycin, oleandomycin, 16membered macrolide resistant strains of
(§3) clinical isolates (macrolideresistant Agroup strains)

Strept.pyogenes 1022 = assay: MIC on Strept.pyogenes 1022 (macrolide-resistant A group); conditions: Streptococcus pyogenes; Strept.pyogenes 1022, erythromycin, oleandomycin, 16-membered macrolide resistant clinical isolate
Source text: as §1, §2, §3

Staph.aureus ATCC6538P = assay: MIC on Staph.aureus ATCC6538P; conditions: Staphylococcus aureus
Source text: as §1

Staph.aureus MS353A0 = assay: MIC on Staph.aureus MS353A0 (macrolide-resistant A group); conditions: Staphylococcus aureus; Staph.aureus MS353A0, erythromycin, oleandomycin, 16-membered macrolide resistant clinical isolate
Source text: as §1, §2, §3

Staph.aureus 0119 = assay: MIC on Staph.aureus 0119 (macrolide-resistant A group); conditions: Staphylococcus aureus
Source text: as §1, §2, §3

Staph.aureus 0116 = assay: MIC on Staph.aureus 0116 (macrolide-resistant A group); conditions: Staphylococcus aureus
Source text: as §1, §2, §3

Staph.aureus MS353 = assay: MIC on Staph.aureus MS353; conditions: Staphylococcus aureus
Source text: as §1

[1] = Staph.aureus 0119, erythromycin, oleandomycin, 16-membered macrolide resistant clinical isolate, read-out: MIC
[2] = Staph.aureus 0116, erythromycin, oleandomycin, 16-membered macrolide resistant clinical isolate, read-out: MIC

| Compound | MIC (Strept.pyogenes N.Y.5) | MIC (Staph.aureus 0127) | MIC (Strept.pyogenes 1022) | MIC (Staph.aureus ATCC6538P) | MIC (Staph.aureus MS353A0) | MIC (Staph.aureus 0119; [1]) | MIC (Staph.aureus 0116; 0116) | MIC (Staph.aureus MS353) | MIC (Staph.aureus 0119; 0119) | MIC (Staph.aureus 0116; [2]) |
| --- | --- | --- | --- | --- | --- | --- | --- | --- | --- | --- |
| CCC1OC(=O)CC(O)C(C)C(OC2OC(C)C(OC3CC(C)(OC(C)=O)C(OC(C)=O)C(C)O3)C(N(C)C)C2O)C(CC=O)CC(C)C(=O)C=CC(C)=CC1COC1OC(C)C(O)C(OC)C1OC (stereo not drawn) [3"-Ac, 4"-Ac, 3", 4"-diacetyltylosin] | 0.2 µg/mL (≈ 0.2 µM) | 100 µg/mL (≈ 100 µM) | 6.3 µg/mL (≈ 6.3 µM) | 0.8 µg/mL (≈ 0.8 µM) | 12.5 µg/mL (≈ 12.5 µM) | 50 µg/mL (≈ 50 µM) | 12.5 µg/mL (≈ 12.5 µM) | 1.6 µg/mL (≈ 1.6 µM) |  |  |
| CCCCCC(=O)OC1C(C)OC(OC2C(C)OC(OC3C(CC=O)CC(C)C(=O)C=CC(C)=CC(COC4OC(C)C(O)C(OC)C4OC)C(CC)OC(=O)CC(O)C3C)C(O)C2N(C)C)CC1(C)OC(C)=O (stereo not drawn) [3"-Ac, 4"-Hex, 3"-acetyl-4"-hexanoyltylosin] | 0.4 µg/mL (≈ 0.379 µM) | 25 µg/mL (≈ 23.7 µM) | 1.6 µg/mL (≈ 1.51 µM) | 1.6 µg/mL (≈ 1.51 µM) | 12.5 µg/mL (≈ 11.8 µM) |  |  | 3.1 µg/mL (≈ 2.93 µM) | 12.5 µg/mL (≈ 11.8 µM) | 6.3 µg/mL (≈ 5.96 µM) |
| CCC1OC(=O)CC(O)C(C)C(OC2OC(C)C(OC3CC(C)(OC(C)=O)C(OC(=O)CC(C)C)C(C)O3)C(N(C)C)C2O)C(CC=O)CC(C)C(=O)C=CC(C)=CC1COC1OC(C)C(O)C(OC)C1OC (stereo not drawn) [3"-Ac, 4"-Iva, 3"-acetyl-4"-isovaleryltylosin] | 0.2 µg/mL (≈ 0.192 µM) | 12.5 µg/mL (≈ 12 µM) | 1.6 µg/mL (≈ 1.54 µM) | 1.6 µg/mL (≈ 1.54 µM) | 6.3 µg/mL (≈ 6.04 µM) | 6.3 µg/mL (≈ 6.04 µM) |  | 3.1 µg/mL (≈ 2.97 µM) |  | 6.3 µg/mL (≈ 6.04 µM) |
| CCC(=O)OC1(C)CC(OC2C(C)OC(OC3C(CC=O)CC(C)C(=O)C=CC(C)=CC(COC4OC(C)C(O)C(OC)C4OC)C(CC)OC(=O)CC(O)C3C)C(O)C2N(C)C)OC(C)C1OC(=O)CC(C)C (stereo not drawn) [3"-Pro, 4"-Iva, 4"-isovaleryl-3"-propionyltylosin] | 0.4 µg/mL (≈ 0.379 µM) | 12.5 µg/mL (≈ 11.8 µM) | 0.8 µg/mL (≈ 0.757 µM) | 1.6 µg/mL (≈ 1.51 µM) | 6.3 µg/mL (≈ 5.96 µM) | 6.3 µg/mL (≈ 5.96 µM) |  | 3.1 µg/mL (≈ 2.93 µM) |  | 6.3 µg/mL (≈ 5.96 µM) |
| CCC(=O)OC1C(C)OC(OC2C(C)OC(OC3C(CC=O)CC(C)C(=O)C=CC(C)=CC(COC4OC(C)C(O)C(OC)C4OC)C(CC)OC(=O)CC(O)C3C)C(O)C2N(C)C)CC1(C)OC(=O)CC (stereo not drawn) [3"-Pro, 4"-Pro, 3", 4"-dipropionyltylosin] | 0.2 µg/mL (≈ 0.195 µM) | 25 µg/mL (≈ 24.3 µM) | 1.6 µg/mL (≈ 1.56 µM) | 1.6 µg/mL (≈ 1.56 µM) | 25 µg/mL (≈ 24.3 µM) | 12.5 µg/mL (≈ 12.2 µM) |  | 3.1 µg/mL (≈ 3.01 µM) |  | 6.3 µg/mL (≈ 6.13 µM) |
| CCCC(=O)OC1C(C)OC(OC2C(C)OC(OC3C(CC=O)CC(C)C(=O)C=CC(C)=CC(COC4OC(C)C(O)C(OC)C4OC)C(CC)OC(=O)CC(O)C3C)C(O)C2N(C)C)CC1(C)O (stereo not drawn) [3"-H, 4"-Bu, reference compound] | 0.2 µg/mL (≈ 0.203 µM) | 100 µg/mL (≈ 101 µM) | 12.5 µg/mL (≈ 12.7 µM) | 0.8 µg/mL (≈ 0.811 µM) | 50 µg/mL (≈ 50.7 µM) | 50 µg/mL (≈ 50.7 µM) |  | 3.1 µg/mL (≈ 3.14 µM) |  | 25 µg/mL (≈ 25.3 µM) |
| CC[C@H]1OC(=O)C[C@@H](O)[C@H](C)[C@@H](O[C@@H]2O[C@H](C)[C@@H](O[C@H]3C[C@@](C)(O)[C@@H](O)[C@H](C)O3)[C@H](N(C)C)[C@H]2O)[C@@H](CC=O)C[C@@H](C)C(=O)/C=C/C(C)=C/[C@@H]1CO[C@@H]1O[C@H](C)[C@@H](O)[C@@H](OC)[C@H]1OC [3"-H, 4"-H, tylosin] | 0.2 µg/mL (≈ 0.218 µM) | > 100 µg/mL | > 100 µg/mL | 0.8 µg/mL (≈ 0.873 µM) | > 100 µg/mL | > 100 µg/mL |  | 1.6 µg/mL (≈ 1.75 µM) |  | > 100 µg/mL |
| CCC1OC(=O)CC(O)C(C)C(OC2OC(C)C(OC3CC(C)(OC(=O)CC(C)C)C(OC(C)=O)C(C)O3)C(N(C)C)C2O)C(CC=O)CC(C)C(=O)C=CC(C)=CC1COC1OC(C)C(O)C(OC)C1OC (stereo not drawn) [3"-Iva, 4"-Ac, 4"-acetyl-3"-isovaleryltylosin] | 0.2 µg/mL (≈ 0.192 µM) | > 100 µg/mL | 6.3 µg/mL (≈ 6.04 µM) | 0.8 µg/mL (≈ 0.768 µM) | 6.3 µg/mL (≈ 6.04 µM) | 25 µg/mL (≈ 24 µM) |  | 1.6 µg/mL (≈ 1.54 µM) |  | 6.3 µg/mL (≈ 6.04 µM) |
| CCCC(=O)OC1C(C)OC(OC2C(C)OC(OC3C(CC=O)CC(C)C(=O)C=CC(C)=CC(COC4OC(C)C(O)C(OC)C4OC)C(CC)OC(=O)CC(O)C3C)C(O)C2N(C)C)CC1(C)OC(=O)CCC (stereo not drawn) [3"-Bu, 4"-Bu, 3", 4"-dibutyryltylosin] | 0.2 µg/mL (≈ 0.189 µM) | 25 µg/mL (≈ 23.7 µM) | 1.6 µg/mL (≈ 1.51 µM) | 1.6 µg/mL (≈ 1.51 µM) | 12.5 µg/mL (≈ 11.8 µM) |  |  | 6.1 µg/mL (≈ 5.77 µM) | 12.5 µg/mL (≈ 11.8 µM) | 6.3 µg/mL (≈ 5.96 µM) |
| CCCC(=O)OC1C(C)OC(OC2C(C)OC(OC3C(CC=O)CC(C)C(=O)C=CC(C)=CC(COC4OC(C)C(O)C(OC)C4OC)C(CC)OC(=O)CC(O)C3C)C(O)C2N(C)C)CC1(C)OC(=O)CC (stereo not drawn) [3"-Pro, 4"-Bu, 4"-butyryl-3"-propionyltylosin] | 0.2 µg/mL (≈ 0.192 µM) | 25 µg/mL (≈ 24 µM) | 1.6 µg/mL (≈ 1.54 µM) | 1.6 µg/mL (≈ 1.54 µM) | 12.5 µg/mL (≈ 12 µM) |  |  | 3.1 µg/mL (≈ 2.97 µM) | 12.5 µg/mL (≈ 12 µM) | 6.3 µg/mL (≈ 6.04 µM) |
| CCC(=O)OC1C(C)OC(OC2C(C)OC(OC3C(CC=O)CC(C)C(=O)C=CC(C)=CC(COC4OC(C)C(O)C(OC)C4OC)C(CC)OC(=O)CC(O)C3C)C(O)C2N(C)C)CC1(C)OC(C)=O (stereo not drawn) [3"-Ac, 4"-Pro, 3"-acetyl-4"-propionyltylosin] | 0.2 µg/mL (≈ 0.197 µM) | 25 µg/mL (≈ 24.6 µM) | 1.6 µg/mL (≈ 1.58 µM) | 1.6 µg/mL (≈ 1.58 µM) | 25 µg/mL (≈ 24.6 µM) | 12.5 µg/mL (≈ 12.3 µM) |  | 3.1 µg/mL (≈ 3.06 µM) |  | 6.3 µg/mL (≈ 6.21 µM) |
| CCCC(=O)OC1C(C)OC(OC2C(C)OC(OC3C(CC=O)CC(C)C(=O)C=CC(C)=CC(COC4OC(C)C(O)C(OC)C4OC)C(CC)OC(=O)CC(O)C3C)C(O)C2N(C)C)CC1(C)OC(C)=O (stereo not drawn) [3"-Ac, 4"-Bu, 3"-acetyl-4"-butyryltylosin] | 0.2 µg/mL (≈ 0.195 µM) | 25 µg/mL (≈ 24.3 µM) | 1.6 µg/mL (≈ 1.56 µM) | 1.6 µg/mL (≈ 1.56 µM) | 12.5 µg/mL (≈ 12.2 µM) |  |  | 3.1 µg/mL (≈ 3.01 µM) | 12.5 µg/mL (≈ 12.2 µM) | 6.3 µg/mL (≈ 6.13 µM) |
